Key:
collagenase = assay: Collagenase expression inhibiting effect in human fibroblasts (collagenase kit, absorbance 405 nm); assay type: cell-based; details: 10^-4 M in serum-free DMEM, 24 hours, relative to non-treated group as 100
Protocol: The collagenase production inhibiting activity of the substances of Comparative Examples and Examples was compared with tocopherol and EGCG as control substances.
Human fibroblasts were seeded onto a 96-well plate holding Dulbecco's modified Eagle's medium (DMEM) comprising 2.5% fetal bovine serum, with 5,000 cells/well, and cultured until ˜90% confluency. The cells were further cultured in serum-free DMEM for 24 hours and treated with the mixture of oriental herbal medicine processed ginseng polysaccharide and green tea polysaccharide prepared in Comparative Examples 1-5 and Examples 1-6 at 10^−4 M in serum-free DMEM for 24 hours. Then the cell culture was collected.
The degree of collagenase production from the collected cell culture was measured using a commercially available collagenase kit (Amersham Pharmacia, USA). […]
Absorbance was measured at 405 nm using a spectrophotometer and the expression level of collagenase was calculated according to Equation 1. The expression level was calculated with respect to the non-treated control group. Expression level of collagenase (%)=[…]{(Absorbance of cells treated with substances of Comparative Example or Example÷Absorbance of control)×100} [Equation 1] […]

procollagen = assay: Procollagen production promoting effect in human fibroblasts (procollagen type-1 C-peptide EIA kit); assay type: cell-based; details: 10^-4 M in serum-free DMEM, 24 hours, relative to non-treated group as 100
Protocol: The procollagen production promoting activity of the substances of Comparative Examples and Examples was compared with that of vitamin C. Human fibroblasts were seeded onto a 96-well plate holding Dulbecco's modified Eagle's medium (DMEM) comprising 2.5% fetal bovine serum, with 5,000 cells/well, and cultured until ˜90% confluency. The cells were further cultured in serum-free DMEM for 24 hours and treated with the mixture of oriental herbal medicine processed ginseng polysaccharide and green tea polysaccharide prepared in Comparative Examples 1-5 and Examples 1-6 and vitamin C dissolved to 10^−4 M in serum-free DMEM for 24 hours. 24 hours later, the amount of free procollagen was measured using the procollagen type-1 C-peptide EIA kit (MK101, Takara, Japan). The level of procollagen production is given in Table 2 relative to the non-treated group as 100.

Molecule | Expression level of collagenase (%) (collagenase) | Level of procollagen production (%) (procollagen)
O=C(O[C@@H]1Cc2c(O)cc(O)cc2O[C@@H]1c1cc(O)c(O)c(O)c1)c1cc(O)c(O)c(O)c1 [EGCG] | 63% | 
O=C1O[C@H]([C@@H](O)CO)C(O)=C1O [Vitamin C] |  | 121%
Tocopherol | 76% | 

Reference: patent publication US10022317B2, “Composition comprising an extract of herbal medicine processed by an oriental herbal medicine processing” (AMOREPACIFIC CORPORATION, priority 2013, dated 2018)
